In US20250163104A1, “MACROCYCLIC IMMUNOMODULATORS” (priority 2021, published 2025):
Where a SMILES comes first, the peptide text is derived from it. Bridges are numbered along the chain shown (N, C = ends). [ ]: non-standard residue; d: D form. The star is where a group is joined. Phe(4-COOH) = N[C@@H](Cc1ccc(C(=O)O)cc1)C(=O)O; Bip = N[C@@H](Cc1ccc(-c2ccccc2)cc1)C(=O)O; d(aThr) = C[C@@H](O)[C@@H](N)C(=O)O; 3Pal = N[C@@H](Cc1cccnc1)C(=O)O; 4Pal = N[C@@H](Cc1ccncc1)C(=O)O; Cit = NC(=O)NCCC[C@H](N)C(=O)O; Carboxymethyl = O=C(O)C*; Orn = NCCC[C@H](N)C(=O)O; Dab = NCC[C@H](N)C(=O)O; Dap = NC[C@H](N)C(=O)O

target: T1, human PD-1 / PD-L1-Ig binding on Jurkat cell line over-expressing human PD-1 (Jurkat-PD-1) (Homo sapiens, UniProt Q15116); test: Jurkat-PD-1 Cell Binding High-Content Screening Assay (CBA); format: cell-based; conditions: Jurkat-PD-1 cells, PE-labeled PD-L1-Ig 20 nM final; read-out: Jurkat HPD1_PDL1 IC50
T1 construct: expressed in transfected cells; host or cells: Jurkat
Method: Example 3. Jurkat-PD-1 Cell Binding High-Content Screening Assay (CBA)
Jurkat-PD-1 Cell Binding High-Content Screening Assay (CBA). Phycoerythrin (PE) was covalently linked to the Ig epitope tag of human PD-L1-Ig and fluorescently-labeled PD-L1-Ig was used for binding studies with a Jurkat cell line over-expressing human PD-1 (Jurkat-PD-1). Briefly, 8×10^3 Jurkat-hPD-1 cells were seeded into 384 well plates in 20 μl of DMEM supplemented with 10% fetal calf serum. 100 nL of compound was added to cells followed by incubation at 37° C. for 2 h. Then, 5 μl of PE-labeled PD-L1-Ig (20 nM final), diluted in DMEM supplemented with 10% fetal calf serum. After 1 hour incubation, cells were fixed with 4% paraformaldehyde in dPBS containing 10 μg/ml Hoechst 33342 and then washed 3x in 100 μl dPBS. Data was collected and processed using a Cell Insight NXT High Content Imager and associated software.

T1 sequence (Q15116 25-288): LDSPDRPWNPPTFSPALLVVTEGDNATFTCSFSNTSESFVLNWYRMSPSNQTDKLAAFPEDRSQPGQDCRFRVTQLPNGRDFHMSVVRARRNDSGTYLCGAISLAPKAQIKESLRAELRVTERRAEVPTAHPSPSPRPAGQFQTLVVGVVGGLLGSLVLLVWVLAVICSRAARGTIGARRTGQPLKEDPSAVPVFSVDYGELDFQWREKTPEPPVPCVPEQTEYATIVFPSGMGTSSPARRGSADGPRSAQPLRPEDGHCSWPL

IC50 [nM] | Compound
10.8 | CC(C)C[C@@H]1NC(=O)[C@H](CCCCN)NC(=O)[C@@H](CC(C)C)NC(=O)[C@H](CCCN)NC(=O)[C@H](CCCNC(=N)N)NC(=O)[C@H](Cc2ccc(-c3ccccc3)cc2)NC(=O)[C@H](C(C)C)NC(=O)[C@H](Cc2c[nH]c3ccccc23)NC(=O)[C@H](CC(=O)O)NC(=O)[C@H](Cc2ccc(O)cc2)NC(=O)[C@H](CC(N)=O)NC(=O)CSC[C@@H](C(=O)N[C@@H](C)C(N)=O)NC(=O)[C@H]([C@@H](C)O)NC(=O)[C@H](C(C)C)NC1=O [Compound 1030] ({CH2CO}-NYDWV[Bip]R[Orn][dL]KLVTCA-NH2; thioether N-14)
87.4 | CC(C)C[C@@H]1NC(=O)[C@H](CCN)NC(=O)[C@@H](CC(C)C)NC(=O)[C@H](Cc2ccc(O)cc2)NC(=O)[C@H](C(C)C)NC(=O)[C@H](Cc2ccc(-c3ccccc3)cc2)NC(=O)[C@@H](C(C)C)NC(=O)[C@H](Cc2c[nH]c3ccccc23)NC(=O)[C@H](CC(=O)O)NC(=O)[C@H](Cc2ccc(O)cc2)NC(=O)[C@H](CC(N)=O)NC(=O)CSC[C@@H](C(=O)N[C@@H](C)C(N)=O)NC(=O)[C@@H]([C@@H](C)O)NC(=O)[C@H](C(C)C)NC1=O [Compound 1031] ({CH2CO}-NYDW[dV][Bip]VY[dL][Dab]LV[d(aThr)]CA-NH2; thioether N-14)
15.5 | CC(C)C[C@@H]1NC(=O)[C@H](CCN)NC(=O)[C@@H](CC(C)C)NC(=O)[C@@H](CC(C)C)NC(=O)[C@H](C(C)C)NC(=O)[C@H](Cc2ccc(-c3ccccc3)cc2)NC(=O)[C@H](C(C)C)NC(=O)[C@H](Cc2c[nH]c3ccccc23)NC(=O)[C@H](CC(=O)O)NC(=O)[C@H](Cc2ccc(O)cc2)NC(=O)[C@H](CC(N)=O)NC(=O)CSC[C@@H](C(=O)N[C@@H](C)C(N)=O)NC(=O)[C@H]([C@@H](C)O)NC(=O)[C@H](C(C)C)NC1=O [Compound 1032] ({CH2CO}-NYDWV[Bip]V[dL][dL][Dab]LVTCA-NH2; thioether N-14)
29.4 | CC(C)C[C@@H]1NC(=O)[C@H](CCN)NC(=O)[C@@H](CC(C)C)NC(=O)[C@H](CC(=O)O)NC(=O)[C@H](C(C)C)NC(=O)[C@H](Cc2ccc(-c3ccccc3)cc2)NC(=O)[C@H](C(C)C)NC(=O)[C@H](Cc2c[nH]c3ccccc23)NC(=O)[C@H](CC(=O)O)NC(=O)[C@H](Cc2ccc(O)cc2)NC(=O)[C@H](CC(N)=O)NC(=O)CSC[C@@H](C(=O)N[C@@H](C)C(N)=O)NC(=O)[C@H]([C@@H](C)O)NC(=O)[C@H](C(C)C)NC1=O [Compound 1033] ({CH2CO}-NYDWV[Bip]VD[dL][Dab]LVTCA-NH2; thioether N-14)
99 | CC(C)C[C@@H]1NC(=O)[C@H](CCN)NC(=O)[C@@H](CC(C)C)NC(=O)[C@H](C(C)C)NC(=O)[C@H](C(C)C)NC(=O)[C@H](Cc2ccc(-c3ccccc3)cc2)NC(=O)[C@H](C(C)C)NC(=O)[C@H](Cc2c[nH]c3ccccc23)NC(=O)[C@H](CC(=O)O)NC(=O)[C@H](Cc2ccc(O)cc2)NC(=O)[C@H](CC(N)=O)NC(=O)CSC[C@@H](C(=O)N[C@@H](C)C(N)=O)NC(=O)[C@H]([C@@H](C)O)NC(=O)[C@H](C(C)C)NC1=O [Compound 1034] ({CH2CO}-NYDWV[Bip]VV[dL][Dab]LVTCA-NH2; thioether N-14)
26.4 | CC(C)C[C@@H]1NC(=O)[C@H](CCN)NC(=O)[C@@H](CC(C)C)NC(=O)[C@H](CC(N)=O)NC(=O)[C@H](C(C)C)NC(=O)[C@H](Cc2ccc(-c3ccccc3)cc2)NC(=O)[C@H](C(C)C)NC(=O)[C@H](Cc2c[nH]c3ccccc23)NC(=O)[C@H](CC(=O)O)NC(=O)[C@H](Cc2ccc(O)cc2)NC(=O)[C@H](CC(N)=O)NC(=O)CSC[C@@H](C(=O)N[C@@H](C)C(N)=O)NC(=O)[C@H]([C@@H](C)O)NC(=O)[C@H](C(C)C)NC1=O [Compound 1036] ({CH2CO}-NYDWV[Bip]VN[dL][Dab]LVTCA-NH2; thioether N-14)
53.9 | CC(C)C[C@@H]1NC(=O)[C@H](CCN)NC(=O)[C@@H](CC(C)C)NC(=O)[C@H](CC(C)C)NC(=O)[C@H](C(C)C)NC(=O)[C@H](Cc2ccc(-c3ccccc3)cc2)NC(=O)[C@H](C(C)C)NC(=O)[C@H](Cc2c[nH]c3ccccc23)NC(=O)[C@H](CC(=O)O)NC(=O)[C@H](Cc2ccc(O)cc2)NC(=O)[C@H](CC(N)=O)NC(=O)CSC[C@@H](C(=O)N[C@@H](C)C(N)=O)NC(=O)[C@H]([C@@H](C)O)NC(=O)[C@H](C(C)C)NC1=O [Compound 1037] ({CH2CO}-NYDWV[Bip]VL[dL][Dab]LVTCA-NH2; thioether N-14)
7 | CC[C@H](C)[C@@H]1NC(=O)[C@H](Cc2ccc(-c3ccccc3)cc2)NC(=O)[C@H](C(C)C)NC(=O)[C@H](Cc2c[nH]c3ccccc23)NC(=O)[C@H](CC(=O)O)NC(=O)[C@H](Cc2ccc(O)cc2)NC(=O)[C@H](CC(N)=O)NC(=O)CSC[C@@H](C(=O)N[C@@H](C)C(N)=O)NC(=O)[C@H]([C@@H](C)O)NC(=O)[C@H](C(C)C)NC(=O)[C@H](CC(C)C)NC(=O)[C@H](CCN)NC(=O)[C@@H](CC(C)C)NC(=O)[C@H](CCCN)NC1=O [Compound 1038] ({CH2CO}-NYDWV[Bip]I[Orn][dL][Dab]LVTCA-NH2; thioether N-14)
12.1 | CC[C@H](C)[C@@H]1NC(=O)[C@H](Cc2ccc(-c3ccccc3)cc2)NC(=O)[C@H](C(C)C)NC(=O)[C@H](Cc2c[nH]c3ccccc23)NC(=O)[C@H](CC(=O)O)NC(=O)[C@H](Cc2ccc(O)cc2)NC(=O)[C@H](CC(N)=O)NC(=O)CSC[C@@H](C(=O)N[C@@H](C)C(N)=O)NC(=O)[C@H]([C@@H](C)O)NC(=O)[C@H](C(C)C)NC(=O)[C@H](CC(C)C)NC(=O)[C@H](CCN)NC(=O)[C@@H](CC(C)C)NC(=O)[C@H](CCCCN)NC1=O [Compound 1039] ({CH2CO}-NYDWV[Bip]IK[dL][Dab]LVTCA-NH2; thioether N-14)
24.3 | CC(C)C[C@@H]1NC(=O)[C@H](CCN)NC(=O)[C@@H](CC(C)C)NC(=O)[C@H](CCCN)NC(=O)[C@H](CCCNC(N)=O)NC(=O)[C@H](Cc2ccc(-c3ccccc3)cc2)NC(=O)[C@H](C(C)C)NC(=O)[C@H](Cc2c[nH]c3ccccc23)NC(=O)[C@H](CC(=O)O)NC(=O)[C@H](Cc2ccc(OCC(=O)O)cc2)NC(=O)[C@H](CN)NC(=O)CSC[C@@H](C(=O)N[C@@H](C)C(N)=O)NC(=O)[C@H]([C@@H](C)O)NC(=O)[C@H](C(C)C)NC1=O [Compound 1040] ({CH2CO}-[Dap]Y(Carboxymethyl)DWV[Bip][Cit][Orn][dL][Dab]LVTCA-NH2; thioether N-14)
42.4 | CC(C)C[C@@H]1NC(=O)[C@H](CCN)NC(=O)[C@@H](CC(C)C)NC(=O)[C@H](CCCN)NC(=O)[C@H](CCCNC(N)=O)NC(=O)[C@H](Cc2ccc(-c3ccccc3)cc2)NC(=O)[C@H](C(C)C)NC(=O)[C@H](Cc2c[nH]c3ccccc23)NC(=O)[C@H](CC(=O)O)NC(=O)[C@H](Cc2ccc(O)cc2)NC(=O)[C@H](Cc2cccnc2)NC(=O)CSC[C@@H](C(=O)N[C@@H](C)C(N)=O)NC(=O)[C@H]([C@@H](C)O)NC(=O)[C@H](C(C)C)NC1=O [Compound 1041] ({CH2CO}-[3Pal]YDWV[Bip][Cit][Orn][dL][Dab]LVTCA-NH2; thioether N-14)
13 | CC(C)C[C@@H]1NC(=O)[C@H](CCN)NC(=O)[C@@H](CC(C)C)NC(=O)[C@H](CCCN)NC(=O)[C@H](CCCNC(N)=O)NC(=O)[C@H](Cc2ccc(-c3ccccc3)cc2)NC(=O)[C@H](C(C)C)NC(=O)[C@H](Cc2c[nH]c3ccccc23)NC(=O)[C@H](CC(=O)O)NC(=O)[C@H](Cc2ccc(OCC(=O)O)cc2)NC(=O)[C@H](Cc2ccncc2)NC(=O)CSC[C@@H](C(=O)N[C@@H](C)C(N)=O)NC(=O)[C@H]([C@@H](C)O)NC(=O)[C@H](C(C)C)NC1=O [Compound 1042] ({CH2CO}-[4Pal]Y(Carboxymethyl)DWV[Bip][Cit][Orn][dL][Dab]LVTCA-NH2; thioether N-14)
31.9 | CC(C)C[C@@H]1NC(=O)[C@H](CCN)NC(=O)[C@@H](CC(C)C)NC(=O)[C@H](CCCN)NC(=O)[C@H](CCCNC(N)=O)NC(=O)[C@H](Cc2ccc(-c3ccccc3)cc2)NC(=O)[C@H](C(C)C)NC(=O)[C@H](Cc2c[nH]c3ccccc23)NC(=O)[C@H](CC(=O)O)NC(=O)[C@H](Cc2ccc(C(=O)O)cc2)NC(=O)[C@H](CN)NC(=O)CSC[C@@H](C(=O)N[C@@H](C)C(N)=O)NC(=O)[C@H]([C@@H](C)O)NC(=O)[C@H](C(C)C)NC1=O [Compound 1043] ({CH2CO}-[Dap][Phe(4-COOH)]DWV[Bip][Cit][Orn][dL][Dab]LVTCA-NH2; thioether N-14)
26.1 | CC(C)C[C@@H]1NC(=O)[C@H](CCN)NC(=O)[C@@H](CC(C)C)NC(=O)[C@H](CCCN)NC(=O)[C@H](CCCNC(N)=O)NC(=O)[C@H](Cc2ccc(-c3ccccc3)cc2)NC(=O)[C@H](C(C)C)NC(=O)[C@H](Cc2c[nH]c3ccccc23)NC(=O)[C@H](CC(=O)O)NC(=O)[C@H](Cc2ccc(O)cc2)NC(=O)[C@H](Cc2ccncc2)NC(=O)CSC[C@@H](C(=O)N[C@@H](C)C(N)=O)NC(=O)[C@H]([C@@H](C)O)NC(=O)[C@H](C(C)C)NC1=O [Compound 1044] ({CH2CO}-[4Pal]YDWV[Bip][Cit][Orn][dL][Dab]LVTCA-NH2; thioether N-14)
28.4 | CC(C)C[C@@H]1NC(=O)[C@H](CCN)NC(=O)[C@@H](CC(C)C)NC(=O)[C@H](CCCN)NC(=O)[C@H](CCCNC(N)=O)NC(=O)[C@H](Cc2ccc(-c3ccccc3)cc2)NC(=O)[C@H](C(C)C)NC(=O)[C@H](Cc2c[nH]c3ccccc23)NC(=O)[C@H](CC(=O)O)NC(=O)[C@H](Cc2ccc(C(=O)O)cc2)NC(=O)[C@H](Cc2cccnc2)NC(=O)CSC[C@@H](C(=O)N[C@@H](C)C(N)=O)NC(=O)[C@H]([C@@H](C)O)NC(=O)[C@H](C(C)C)NC1=O [Compound 1045] ({CH2CO}-[3Pal][Phe(4-COOH)]DWV[Bip][Cit][Orn][dL][Dab]LVTCA-NH2; thioether N-14)
